Consider four compounds from US10100366B2, “Methods of detecting cancers sensitive to cabozantinib” (Oregon Health & Science University, priority 2015, dated 2018).

Assay [1] has as its target T1, Ba/F3 cells expressing native CD74-ROS1 (Homo sapiens, UniProt P08922).
T1 construct: CD74 (fusion partner, N-terminal part of CD74); expressed in transfected cells; host or cells: Ba/F3 (murine pro-B), retroviral transduction, IL-3 withdrawn; the other entry of the earlier key: CD74 (P04233, HLA class II histocompatibility antigen gamma chain)
Briefly: Cell growth/viability assay (MTS), Ba/F3 native CD74-ROS1. Particulars: 72 h exposure, read-out: IC50, growth inhibition. The class given is cell-based. The procedure: (§1) CD74-ROS1D2033N was generated using site-directed mutagenesis by following manufacturer's protocol (Agilent). Ba/F3 cells were maintained at densities of 0.5-1.5×10^6 cells/mL and infected with retrovirus encoding native or mutant versions of human CD74-ROS1. GFP-based selection of transduced cells was performed with a FACSAria cell sorter (BD Biosciences). Stable cell lines were washed with complete medium to remove IL-3. Cells that grew out after IL-3 withdrawal were maintained in complete medium and used for in vitro assays.
(§2) Inhibitors were prepared as 1 mM stocks in DMSO prior to each experiment. […] Ba/F3 cells expressing CD74-ROS1 constructs were seeded (800 cells/well; 25 μL) into drug plates using a Multidrop Combi Reagent Dispenser (Thermo Scientific), and plates were incubated for 72 h at 37° C., 5% CO2. Viability was measured using a methanethiosulfonate (MTS)-based assay (CellTiter96 Aqueous One Solution; Promega) read on a Biotek Synergy 2 plate reader. Proliferation experiments were performed three independent times in triplicate.

The target of assay [2] is T2, Ba/F3 cells expressing CD74-ROS1 D2033N (Homo sapiens, UniProt P08922, D2033N).
T2 construct: CD74 (fusion partner, N-terminal part of CD74); expressed in transfected cells; host or cells: Ba/F3 (murine pro-B), retroviral transduction, IL-3 withdrawn; the other entry of the earlier key: CD74 (P04233, HLA class II histocompatibility antigen gamma chain)
T2 sequence (P08922 1883-2347 D2033N limits assumed): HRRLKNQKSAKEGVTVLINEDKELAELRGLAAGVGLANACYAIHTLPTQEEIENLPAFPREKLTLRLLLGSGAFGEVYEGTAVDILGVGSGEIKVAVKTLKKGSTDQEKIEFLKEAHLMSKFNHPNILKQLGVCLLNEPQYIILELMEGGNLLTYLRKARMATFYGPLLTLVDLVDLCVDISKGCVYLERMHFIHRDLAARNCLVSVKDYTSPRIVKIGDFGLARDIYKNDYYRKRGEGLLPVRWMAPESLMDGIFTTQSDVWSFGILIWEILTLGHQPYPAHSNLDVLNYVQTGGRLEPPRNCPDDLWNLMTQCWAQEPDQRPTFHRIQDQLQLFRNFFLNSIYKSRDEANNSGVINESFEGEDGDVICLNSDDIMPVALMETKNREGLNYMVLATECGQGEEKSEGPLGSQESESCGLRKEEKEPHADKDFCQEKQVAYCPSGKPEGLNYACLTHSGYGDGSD
Briefly: Cell growth/viability assay (MTS), Ba/F3 CD74-ROS1 D2033N. The class given is cell-based. The method, then:
as §1, §2

The subject of assay [3] is CD74-ROS1-rearranged lung adenocarcinoma with acquired CD74-ROS1 D2033N mutation. Description: Patient case: cabozantinib after acquired crizotinib resistance (phase II trial NCT01639508), RECIST v1.1. The assay is classed as in vivo, human. Particulars: one patient, 60 mg daily, at 12 weeks. The procedure: The patient received cabozantinib at a dose of 60 mg daily in 28-day cycles as part of an ongoing phase II clinical trial (NCT01639508) with an arm for ROS1-rearranged lung cancers. Inclusion criteria for patients in this trial were as follows: pathologic or cytologic evidence of non-small-cell lung cancer (NSCLC), clinical stage IV or recurrent/medically inoperable disease, a Karnofsky performance status of more than 70%, a life expectancy of more than 12 weeks, adequate hematologic, renal, and hepatic function, and measurable disease. Informed consent was obtained after the nature and possible consequences of the studies were explained. Treatment was discontinued in the event of disease progression, unacceptable toxicity, or patient withdrawal. Dose reductions were permitted as per a prescribed algorithm. Response was assessed using the Response Evaluation Criteria in Solid Tumors (RECIST) version 1.1 (Eisenhauer E A et al, Eur J Cancer 45, 228-247 (2009); incorporated by reference herein). Imaging was performed at baseline, 4 weeks, and every 8 weeks thereafter. In addition, scans to confirm response were performed as per RECIST. […]
Of 644 sequencing reads over that specific region of ROS1 that were at […] depth, the variant frequency of c.6097G>A was 14% in the crizotinib-resistant tumor specimen and undetectable the matched normal peripheral blood control. […]

In assay [4] the test system is CD74-ROS1-rearranged lung adenocarcinoma. Briefly: Patient case: crizotinib treatment, response by RECIST v1.1. The settings on record: one patient, 250 mg twice daily. The class given is in vivo, human. The text has this: A never smoker with metastatic lung adenocarcinoma involving the pleura received three cycles of first-line systemic therapy with cisplatin, pemetrexed, and bevacizumab (FIG. 1, FIG. 9).

In a further assay the test system is Ba/F3 CD74-ROS1 cells. Briefly: Immunoblot analysis of ROS1 and downstream effector phosphorylation, native CD74-ROS1 cells. The class given is cell-based, human. The settings on record: 2 h treatment. The procedure:
Ba/F3 CD74-ROS1 and CD74-ROS1D2033N […] cells were treated with the indicated concentrations of inhibitors for 2 h, pelleted, washed once in ice-cold PBS, and lysed in 200 μL of cell lysis buffer (Cell Signaling Technology) that was supplemented with 0.25% deoxycholate, 0.05% SDS, and protease and phosphatase inhibitors. Equal amounts of protein were extracted with SDS sample buffer for 15 min at 80° C. and resolved on 4-15% Tris-glycine or 4-12% Bis-Tris precast gels (Criterion; Bio-Rad). Proteins transferred to Immobilon-FL membranes (Millipore) were probed with: phospho-ROS1 [Cell Signaling Technology (CST); 3078, 1:1000], total ROS1 (CST; 3266, 1:1000), phospho-ERK1/2 (CST; 9101, 1:1000), total ERK2 (Santa Cruz; sc-1647, 1:2000), phospho-AKT (CST; 4060, 1:1000), AKT (BD Transduction Laboratories; 610860, 1:1000), pSHP2 (CST; 3703), pSTAT3 (CST, 9131), and GAPDH (Ambion; AM4300, 1:5000). Blots were imaged using either a LI-COR Odyssey imaging system or the Bio-Rad ChemiDoc imaging station according to the manufacturer's protocol for immunoblot detection with use of Infrared dye or horseradish peroxidase-conjugated secondary antibodies, respectively.
Background: In western blotting, separated proteins are transferred to a membrane and probed.

Assay [5] concerns ROS1-rearranged lung cancers. Particulars: phase 1 expansion cohort data; cited from earlier work.

T1 sequence (P08922 with tags, fused parts or gaps): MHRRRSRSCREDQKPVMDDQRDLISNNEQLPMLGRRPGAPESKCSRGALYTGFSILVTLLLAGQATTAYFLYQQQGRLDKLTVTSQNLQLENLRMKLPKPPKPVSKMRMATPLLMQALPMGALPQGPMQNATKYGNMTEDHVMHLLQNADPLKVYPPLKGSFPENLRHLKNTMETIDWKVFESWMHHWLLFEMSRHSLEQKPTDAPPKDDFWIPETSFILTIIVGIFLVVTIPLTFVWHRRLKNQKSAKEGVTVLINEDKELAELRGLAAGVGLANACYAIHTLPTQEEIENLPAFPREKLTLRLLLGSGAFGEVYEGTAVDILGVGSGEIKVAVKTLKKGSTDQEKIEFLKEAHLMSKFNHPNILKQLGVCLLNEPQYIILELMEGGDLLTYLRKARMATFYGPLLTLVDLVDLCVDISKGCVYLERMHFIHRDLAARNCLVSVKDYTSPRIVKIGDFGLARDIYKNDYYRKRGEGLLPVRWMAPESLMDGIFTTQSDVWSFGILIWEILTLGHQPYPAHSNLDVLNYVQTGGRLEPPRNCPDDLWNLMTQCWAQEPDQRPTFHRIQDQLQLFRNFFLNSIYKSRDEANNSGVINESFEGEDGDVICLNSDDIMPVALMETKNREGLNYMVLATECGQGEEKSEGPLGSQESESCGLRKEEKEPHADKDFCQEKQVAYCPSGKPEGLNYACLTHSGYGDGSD

In the case of `COc1cc2nccc(Oc3ccc(NC(=O)C4(C(=O)Nc5ccc(F)cc5)CC4)cc3)c2cc1OC` [cabozantinib], the IC50 (as a rule, the midpoint of a concentration-inhibition curve) in assay [1] worked out at 0.78 nM; in assay [2] (read-out: IC50, growth inhibition, Ba/F3 CD74-ROS1D2033N cells, 72 h exposure), 2.8 nM. Besides, the “reduction in disease burden” value in assay [3] is reported as 92%.

For the compound `Cc1cc(Nc2ncc(Cl)c(Nc3ccccc3S(=O)(=O)C(C)C)n2)c(OC(C)C)cc1C1CCNCC1` [ceritinib], the “fold decrease in sensitivity, CD74-ROS1D2033N compared to native CD74-ROS1” value in assay [2] (Ba/F3 cells, 72 h, ratio of IC50) is given as 4.3 fold.

`C[C@@H](Oc1cc(-c2cnn(C3CCNCC3)c2)cnc1N)c1c(Cl)ccc(F)c1Cl` [crizotinib]: the “time on drug until widespread disease progression” value in assay [4] stood at 26 months. For the same compound, in assay [4] (RECIST v1.1), the “clinical response (in words)” value was “durable partial response” and the “reduction in disease burden” value stood at 64%. Further, the “inhibition of phosphorylation of ROS1 and downstream effectors SHP2, ERK1/2, AKT and STAT3” value in the assay with Ba/F3 CD74-ROS1 cells was “dose-dependent inhibition”. In assay [5], the median progression-free survival is on record as 19 months and the response rate is recorded as 72%.

With `COc1cc2c(Oc3ccc(NC(=O)C4(C(=O)Nc5ccc(F)cc5)CC4)cc3F)ccnc2cc1OCCCN1CCOCC1` [foretinib], the “sensitivity of CD74-ROS1D2033N mutant (in words)” value in assay [2] (Ba/F3 cells, 72 h) is reported as “remained highly sensitive”.
